Each structure is given as a SMILES string. Where a name gives a salt, the structure may show the parent alone. Read-outs that look alike come from different tables or passages of the source.

Data on three compounds can be found in patent US6355659B1, “4-(4-Chlorophenyl)-1236-tetrahydro-1(1H-124-triazol-1-yl)butty)pyrideine and salts thereof; pharmaceutical compositions and method of treating psychoses utilizing same” (Laboratorios Del Dr. Esteve, S.A., priority 1994, dated 2002).

The subject of data set [1] is catalepsy. Briefly: Induction of catalepsy in rats. The data set is classed as in vivo. The following applies: s.c. An excerpt:
The induction of catalepsy in rats [J. Robert et al., J. Pharmacol. Exp. Ther., 1986, 239, 124] is a parameter that is commonly employed for determining the ability of antipsychotics to induce extrapyramidal effects. The typical antipsychotics are those which, in spite of being very powerful in specific tests of antipsychotic activity, induce extrapyramidal effects, and this is detected in the catalepsy test. The best known of the typical antipsychotics is haloperidol, whereas the best known of the atypical antipsychotics is clozapine.

For data set [2], the system named is protein c-fos. Briefly: Induction of the protein c-fos in various brain areas in the rat (Western blot). The settings on record: sc; for activity at 30 mg/kg: rat, acute treatment, 30 mg/kg s.c. In kind it is in vivo. An excerpt:
Induction of the Protein c-fos in Various Brain Areas in the Rat
Acute treatment with various antipsychotics is characterized by the induction of the protein c-fos, owing to the rapid induction off the c-fos gene in various areas of the limbic and extrapyramidal systems [M. Dragunow et al., Neuroscience, 1990, 37, 287-294; J. C. Miller, J. Neurochem., 1990, 54, 1453-1455; A. Y. Deutch et al., Mol. Cell. Neurosci., 1992, 3, 332-341; T. V. Nguyen et al., Proc. Natl. Acad. Sci. USA, 1992, 89, 4270-4274; G. S. Robertson and H. C. Fibinger, Neuroscience, 1992, 46, 315-328]. The patterns of induction of the protein depend on whether the antipsychotic is typical or atypical [G. S. Robertson et al., J. Pharmacol. Exp. Ther., 1994, 271, 1058-1066; G. S. Robertson and H. C. Fibinger, Neuroscience, 1992, 46, 315-328]. These changes in expression of c-fos can be investigated by extraction of the proteins from the brain areas of interest, and analysis of the levels by electrophoresis (Western blot).

For data set [3], the target named is T1, 5-HT1A (Homo sapiens, UniProt P08908).
T1 sequence (P08908 1-422): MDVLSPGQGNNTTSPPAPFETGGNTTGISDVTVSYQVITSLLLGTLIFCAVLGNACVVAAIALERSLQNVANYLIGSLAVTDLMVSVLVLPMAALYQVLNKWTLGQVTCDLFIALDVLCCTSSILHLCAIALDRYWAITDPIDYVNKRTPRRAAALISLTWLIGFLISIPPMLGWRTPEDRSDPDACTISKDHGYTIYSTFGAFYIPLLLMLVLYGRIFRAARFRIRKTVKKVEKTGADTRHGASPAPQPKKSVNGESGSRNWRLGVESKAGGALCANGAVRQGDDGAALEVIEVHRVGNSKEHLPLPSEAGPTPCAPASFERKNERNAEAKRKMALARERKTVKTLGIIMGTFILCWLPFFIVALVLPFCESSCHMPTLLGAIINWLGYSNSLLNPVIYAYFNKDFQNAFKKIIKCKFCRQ
Briefly: 5-HT1A receptor affinity. The data set is classed as binding.

In data set [4] the target is SIGMA-1 (σ1) (Homo sapiens, UniProt Q99720). Briefly: Sigma-1 receptor affinity. In kind it is binding. The settings on record: SIGMA-1 (σ1) receptor.
The target in data set [5] is SIGMA-2 (σ2) (Homo sapiens, UniProt Q5BJF2). Briefly: Sigma-2 receptor affinity. The data set is classed as binding. The settings on record: SIGMA-2 (σ2) receptor.
Sequence of SIGMA-2 (σ2) (Q5BJF2 whole entry): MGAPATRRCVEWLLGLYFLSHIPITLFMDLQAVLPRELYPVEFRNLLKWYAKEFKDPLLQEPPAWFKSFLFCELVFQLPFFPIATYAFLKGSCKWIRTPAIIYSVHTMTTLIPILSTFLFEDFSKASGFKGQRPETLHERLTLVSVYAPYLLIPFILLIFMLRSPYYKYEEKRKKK

Sequence of SIGMA-1 (σ1) (Q99720 whole entry): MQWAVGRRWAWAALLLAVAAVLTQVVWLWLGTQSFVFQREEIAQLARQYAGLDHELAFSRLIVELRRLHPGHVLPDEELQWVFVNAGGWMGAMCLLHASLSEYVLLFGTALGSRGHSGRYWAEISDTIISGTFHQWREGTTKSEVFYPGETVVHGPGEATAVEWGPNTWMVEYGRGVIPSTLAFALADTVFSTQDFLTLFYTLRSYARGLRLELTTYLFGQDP

Regarding `CN1CCN(C2=Nc3cc(Cl)ccc3Nc3ccccc32)CC1` [Clozapine, clozapine], the “Induction of catalepsy, DE-50” value in data set [1] is listed as “Inactive up to 80 mg/kg”. For the same compound, the activity at 30 mg/kg in data set [2] (read-out: Fos immunoreactivity % change relative to control, Dorsolateral groove) came out at 110%; in data set [2] (read-out: Fos immunoreactivity % change relative to control, Medial area of prefrontal cortex), 134%; in data set [2] (read-out: Fos immunoreactivity % change relative to control, Nucleus accumbens) it was 118%.
On to `Clc1ccc(C2=CCN(CCCCn3cncn3)CC2)cc1` [Example 2, 4-(4-chlorophenyl)-1,2,3,6-tetrahydro-1-[4-(1H-1,2,4-triazol-1-yl)butyl]pyridine hydrochloride], for which the activity at 20 mg/kg stood at 104% in data set [2] (read-out: Fos immunoreactivity % change relative to control, Dorsolateral groove, rat, acute treatment, 20 mg/kg s.c., % of saline group); 134% in data set [2] (read-out: Fos immunoreactivity % change relative to control, Medial area of prefrontal cortex, rat, acute treatment, 20 mg/kg s.c., % of saline group); 118% in data set [2] (read-out: Fos immunoreactivity % change relative to control, Nucleus accumbens, rat, acute treatment, 20 mg/kg s.c., % of saline group). Moreover, the Ki in data set [3] was 600 nM; in data set [4] it was 3.7 nM; in data set [5], 465 nM.
Turning to `O=C(CCCN1CCC(O)(c2ccc(Cl)cc2)CC1)c1ccc(F)cc1` [Haloperidol, haloperidol], the “Induction of catalepsy, DE-50” value in data set [1] is “DE-50 = 0.14 mg/kg,”; in data set [1] (listed as haloperidol), 0.14 mg/kg.
